Data on 17 compounds can be found in patent publication US20040076974A1, “Liver necrosis predictive genes” (priority 2002, published 2004).

This data set has as its system Sprague Dawley rats. How it is done:
Sprague Dawley rats Crl:CD from Charles River, Raleigh, N.C. were divided into treated rats that receive a specific concentration of the compound (see Table 1) and. control rats that only received the vehicle in which the compound is mixed (e.g., saline).
At specified timepoints (6 h, 24 h and 72 h) after administration (intraperitoneal route) of the compound, a set number of rats (usually 3 control and 3 treated) were euthanized and tissues collected. Each, rat was heavily sedated with an overdose of CO2 by inhalation and a maximum amount of blood drawn. Exsanguination of the rat by this drawing of blood kills the rat. The method of collecting the tissues is very important and ensures preserving the quality of the mRNA in the tissues. The body of the rat was then opened up and prosectors rapidly removed the tissues (including) and immediately placed them into liquid nitrogen. […] The organs/tissues were then packaged into well-labeled plastic freezer quality bags and stored at −80 degrees until needed for isolation of the mRNA from a portion of the organ/tissue sample.
Histopathology scores for each animal (assigned on a compound-dose basis as indicated in Table 1) were entered with gene expression data by using the GeneSpring™ ‘Drawn Gene’ function. Correlations between the histopathology scores and gene expression were conducted with the distance measures listed below:
Toxicity classifications were entered for training and test set as a parameter column. Toxicity, as defined by observation of necrosis in the at 72 hours after treatment, was entered as a “yes” or “no” for each animal in a compound-dose group. Additionally, a parameter column for random histopathology classification was designated. This was done by randomly assigning the same number of “yes” and “no” calls to the individual animals.

[1] abbreviates: compound-dose group at 72 h; dose 20.
The mark [2] stands for this setting: compound-dosegroup at 72 h, dose 20.
The mark [3] stands for this setting: rat, intraperitoneal, dose 20 mg/kg, 72 hours after treatment.
Setting [4] is: rat, intraperitoneal, dose 20 mg/kg, 72 hours; 1 = not remarkable, 2 and higher increasing severity.
Setting [5] is: Sprague Dawley, rat, in vivo, ip, 50 mg/kg, 72 h.
The mark [6] stands for this setting: 72 h; compound-dose group; dose BRB 800, BUS 14, CAD 1, CAR 16.
[7] abbreviates: compound-dose group at 72 h; BUS 14, CAD 1, CAR 16 (dose codes, Table 1).

Read-outs that look alike come from different tables or passages of the source.

For the compound `CN(N=O)C(=O)N[C@H]1C(O)O[C@H](CO)[C@@H](O)[C@@H]1O` (mixture of isomers) [streptozotocin], the “Liver Toxicity Necrosis Classification” value by setting is: (compound-dose group at 72 h, dose 20) “no”; (compound-dose group at 72 h, dose 75) “no”; under setting [1], “no”; (compound-dose group at 72 h; dose 75) “no”; under setting [2], “no”; (compound-dosegroup at 72 h, dose 75) “no”. The “Liver Toxicity Necrosis Classification” value (compound-dosegroup at 72 h; dose PEG 5000, PUR 38, QUIN 25, STRZ 20) is reported as “no”. In addition, the “Liver Necrosis” value is reported as “no” under setting [3] and “no” (rat, intraperitoneal, dose 75 mg/kg, 72 hours after treatment). Further, the “Score (histopathology liver necrosis severity score)” value is, setting by setting: under setting [4], 1; (rat, intraperitoneal, dose 75 mg/kg, 72 hours; 1 = not remarkable, 2 and higher increasing severity) 1.

On to `O=c1[nH]cc(F)c(=O)[nH]1` [5-fluorouracil], for which the “Score (histopathology liver necrosis severity score)” value by setting is: (Sprague Dawley, rat, in vivo, ip, 13 mg/kg, 72 h) 1; under setting [5], 1. Besides, the “Liver Toxicity Necrosis Classification” value (rat, in vivo) was “no”. Besides, the “Liver Necrosis” value is recorded as “no” (rat, in vivo, ip, 13 mg/kg) and “no” (rat, in vivo, ip, 50 mg/kg).

For `C[C@@H]1[C@H](O)[C@@H](C)/C=C/C=C/C=C/C=C/C=C/C=C/C=C/[C@H](O[C@@H]2O[C@H](C)[C@@H](O)[C@H](N)[C@@H]2O)C[C@@H]2O[C@](O)(C[C@@H](O)C[C@@H](O)[C@H](O)CC[C@@H](O)C[C@@H](O)CC(=O)O[C@H]1C)C[C@H](O)[C@H]2C(=O)O` [amphotericin B], the “Liver Toxicity Necrosis Classification” value is “no” (72 h; dose 5); “no” (72 h; dose 20); “no” (AMPB 20; 72 h); “no” (compound-dose group at 72 h; dose 5); “no” under setting [1]; “no” (compound-dosegroup at 72 h, dose 5). For the same compound, the “Liver Toxicity Necrosis Classification” value under setting [2] is recorded as “no”. The “Liver Necrosis” value (rat, intraperitoneal, dose 5 mg/kg, 72 hours after treatment) is recorded as “No” and the “Liver Necrosis” value under setting [3] was “No”. Moreover, the “Score (histopathology liver necrosis severity score)” value by setting is: (rat, intraperitoneal, dose 5 mg/kg, 72 hours; 1 = not remarkable, 2 and higher increasing severity) 1; under setting [4], 1.

Regarding `Cn1cnc([N+](=O)[O-])c1Sc1ncnc2nc[nH]c12` [azathioprine], the “Score (histopathology liver necrosis severity score)” value reads like this: under setting [5], 1; (Sprague Dawley, rat, in vivo, ip, 200 mg/kg, 72 h) 1. Also, under “rat, in vivo”, the “Liver Toxicity Necrosis Classification” value is listed as “no”. For the same compound, the “Liver Necrosis” value is, setting by setting: (rat, in vivo, ip, 50 mg/kg) “No”; (rat, in vivo, ip, 200 mg/kg) “No”.

As to `c1ccccc1` [benzene], for the setting “rat, in vivo”, the “Liver Toxicity Necrosis Classification” value is given as “no”. Further, under “rat, in vivo, ip”, the “Liver Necrosis” value is “No” and the “Score (histopathology liver necrosis severity score)” value is reported as 1.

Turning to `c1ccc2c(c1)cc1ccc3cccc4ccc2c1c34` [benzo[a]pyrene], where the note is “compound-dose group at 72 h; dose 30”, the “Liver Toxicity Necrosis Classification” value is “no”. Also, the “Liver Necrosis” value (rat, intraperitoneal, dose 30 mg/kg, 72 hours after treatment) is reported as “No”. Further, where the note is “rat, intraperitoneal, dose 30 mg/kg, 72 hours; 1 = not remarkable, 2 and higher increasing severity”, the “Score (histopathology liver necrosis severity score)” value is listed as 1.

`CS(=O)(=O)OCCCCOS(C)(=O)=O` [busulfan]: the “Score (histopathology liver necrosis severity score)” value (Sprague Dawley, rat, in vivo, ip, 14 mg/kg, 72 h) is 1. Besides, the “Liver Toxicity Necrosis Classification” value (rat, in vivo) is given as “no”. Also, the “Liver Necrosis” value (rat, in vivo, ip, 14 mg/kg) is listed as “no”.

For `[Cl][Cd][Cl]` [cadmium chloride], the “Liver Toxicity Necrosis Classification” value is on record as “no” under setting [6]; “no” (72 h; compound-dose group; dose CAD 2); “no” (compound-dose group at 72 h, dose 1; no = no necrosis observed); “yes” (compound-dose group at 72 h, dose 4; yes = necrosis observed); “no” under setting [7]. Moreover, the “Liver Necrosis” value runs as follows: (rat, intraperitoneal, dose 1 mg/kg, 72 hours after treatment) “no”; (rat, intraperitoneal, dose 2 mg/kg, 72 hours after treatment) “No”; (rat, intraperitoneal, dose 4 mg/kg, 72 hours after treatment) “Yes”. For the same compound, the “Score (histopathology liver necrosis severity score)” value runs as follows: (rat, intraperitoneal, dose 1 mg/kg, 72 hours; 1 = not remarkable, 2 and higher increasing severity) 1; (rat, intraperitoneal, dose 2 mg/kg, 72 hours; 1 = not remarkable, 2 and higher increasing severity) 1; (rat, intraperitoneal, dose 4 mg/kg, 72 hours; 1 = not remarkable, 2 and higher increasing severity) 3.

On to `O=NN(CCCl)C(=O)NCCCl` [carmustine], for which the “Liver Toxicity Necrosis Classification” value by setting is: (72 h, dose 16) “no”; under setting [6], “no”; under setting [7], “no”; (compound-dosegroup at 72 h; dose 16) “no”. Further, the “Liver Necrosis” value (rat, intraperitoneal, dose 16 mg/kg, 72 hours after treatment) was “no”. The “Score (histopathology liver necrosis severity score)” value (rat, intraperitoneal, dose 16 mg/kg, 72 hours; 1 = not remarkable, 2 and higher increasing severity) is 1.

Turning to `ClC(Cl)Cl` [chloroform], the “Liver Toxicity Necrosis Classification” value (rat, in vivo) was “no”. Also, where the note is “rat, in vivo, ip”, the “Liver Necrosis” value is “no” and the “Score (histopathology liver necrosis severity score)” value came to 1.

Regarding `CN(C)CCCN1c2ccccc2Sc2ccc(Cl)cc21` [chlorpromazine], the “Score (histopathology liver necrosis severity score)” value reads like this: (Sprague Dawley, rat, in vivo, ip, 8 mg/kg, 72 h) 1; (Sprague Dawley, rat, in vivo, ip, 30 mg/kg, 72 h) 1. Moreover, the “Liver Toxicity Necrosis Classification” value (rat, in vivo) was “no”. The “Liver Necrosis” value is reported as “no” (rat, in vivo, ip, 8 mg/kg) and “no” (rat, in vivo, ip, 30 mg/kg).

Take `N.N.[Cl][Pt][Cl]` [cisplatin]: the “Liver Necrosis” value (rat, intraperitoneal, dose 10 mg/kg, 72 hours after treatment) is reported as “no”. Besides, the “Score (histopathology liver necrosis severity score)” value (rat, intraperitoneal, dose 10 mg/kg, 72 hours; 1 = not remarkable, 2 and higher increasing severity) turned out to be 1.

Consider `CCOC(=O)C(C)(C)Oc1ccc(Cl)cc1` [clofibrate], for which the “Score (histopathology liver necrosis severity score)” value reads like this: (Sprague Dawley, rat, in vivo, ip, 75 mg/kg, 72 h) 1; (Sprague Dawley, rat, in vivo, ip, 250 mg/kg, 72 h) 1. Moreover, the “Liver Toxicity Necrosis Classification” value (rat, in vivo) was “no”. For the same compound, the “Liver Necrosis” value (rat, in vivo, ip, 75 mg/kg) is “no” and the “Liver Necrosis” value (rat, in vivo, ip, 250 mg/kg) is reported as “no”.

Turning to `CN1CCN(C2=Nc3cc(Cl)ccc3Nc3ccccc32)CC1` [clozapine], the “Score (histopathology liver necrosis severity score)” value came out at 1 (Sprague Dawley, rat, in vivo, ip, 45 mg/kg, 72 h) and 1 (Sprague Dawley, rat, in vivo, ip, 180 mg/kg, 72 h). For the same compound, the “Liver Toxicity Necrosis Classification” value (rat, in vivo) is reported as “no”. Also, the “Liver Necrosis” value is, setting by setting: (rat, in vivo, ip, 45 mg/kg) “no”; (rat, in vivo, ip, 180 mg/kg) “no”.

On to `O=C(O)c1cc(-c2ccc(F)cc2F)ccc1O` [diflunisal], for which the “Score (histopathology liver necrosis severity score)” value is listed as 1 (Sprague Dawley, rat, in vivo, ip, 25 mg/kg, 72 h) and 1 (Sprague Dawley, rat, in vivo, ip, 100 mg/kg, 72 h). Besides, the “Liver Toxicity Necrosis Classification” value (rat, in vivo) is listed as “no”. Besides, the “Liver Necrosis” value is, setting by setting: (rat, in vivo, ip, 25 mg/kg) “no”; (rat, in vivo, ip, 100 mg/kg) “no”.

As for `CN(C)N=O` [dimethylnitrosamine], the “Liver Toxicity Necrosis Classification” value reads like this: (72 h, dose 20) “yes”; (72 h; dose 20) “yes”; (compound-dose group at 72 h; CCL4 1000, DMN 20, LPS 8) “yes”. Further, under setting [3], the “Liver Necrosis” value is on record as “Yes”. The “Score (histopathology liver necrosis severity score)” value under setting [4] is on record as 9.

On to `COc1cccc2c1C(=O)c1c(O)c3c(c(O)c1C2=O)C[C@@](O)(C(=O)CO)C[C@@H]3O[C@H]1C[C@H](N)[C@H](O)[C@H](C)O1` [doxorubicin], for which the “Score (histopathology liver necrosis severity score)” value (Sprague Dawley, rat, in vivo, ip, 12 mg/kg, 72 h) is recorded as 1. In addition, under “rat, in vivo”, the “Liver Toxicity Necrosis Classification” value was “no”. Moreover, under “rat, in vivo, ip, 12 mg/kg”, the “Liver Necrosis” value is given as “no”.
